Where “and” joins values, the source holds several entries; their conditions need not be identical. Identical values can stand only once.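 Five concentrations, 48 hours, 96-well plates. At the GI50, growth is halved. At the TGI there is no net growth.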
What follows are molecules tested on MDA-MB-468 breast (assay: NCI-60 cell line screen, 48 h).
For O=C1c2cc(Cl)ccc2S(=O)(=O)c2c(NCCCNCCO)nc3ccccc3c21, the GI50 was 1060 nM and the TGI was 2950 nM. NC(=O)c1ccc(I)c(N)c1 was tested, and the GI50 was > 100000 nM and the TGI was > 100000 nM. COC(=O)[C@]12CC[C@@H](C)[C@H](C)[C@@H]1C1=CC[C@@H]3[C@@]4(C)C/C(=N\O)[C@H](O)[C@@]5(C)COC(=C45)C[C@@]3(C)[C@]1(C)CC2 gave a GI50 of 6220 nM and a TGI of 20600 nM. For COc1cc(C2NC(=O)c3ccccc3N2)ccc1OCCCCCOc1c(OC)cc(C2=NOC(c3cc(OC)c(OC)c(OC)c3)C2)cc1OC (stereo not given), the GI50 was 80.5 nM and the TGI was 97300 nM. O=c1[nH]ncc(Br)c1Br showed a GI50 of 1270 nM and a TGI of 3210 nM. C=C1C(=O)O[C@H]2[C@H]1CC/C(Cn1cc(-c3ccc(OC)cc3)nn1)=C\CC[C@@]1(C)O[C@@H]21 showed a GI50 of 892 nM and a TGI of 2560 nM. With CC(=O)OC[C@]1(C)C=C2C(=O)[C@](C)(O)C3(CC3)C(C)=C2[C@H]1O the GI50 was 44.7 nM and the TGI was 196 nM. For COc1cc2c(c(O)c1Br)C(=O)c1c(O)cc(C[C@H](C)O)cc1[C@H]2[C@H]1c2cc(C[C@H](C)O)cc(O)c2C(=O)c2c1cc(OC)c(Br)c2O, the GI50 was 13300 nM and 16500 nM and the TGI was 36000 nM and 41900 nM. With Cc1ccc(NC(=O)c2cccc(N(C)C)c2)cc1NC(=O)c1ccc(O)cc1 the GI50 was > 57200 nM and the TGI was > 100000 nM. With COc1ccc(-c2cnnc3c(-c4cccc(C(F)(F)F)c4)cnn23)cc1 the GI50 was 5390 nM and the TGI was > 100000 nM. Molecule C=CCCCCCCCCC(=O)[O][Sn]([CH2]CCC)([CH2]CCC)[CH2]CCC has a GI50 of 135 nM and a TGI of 278 nM. In the case of Oc1ccc2ccccc2c1N=Nc1nccs1, the GI50 is reported as 1640 nM and the TGI is reported as 6160 nM. CCCn1cnc2c(SCc3ccccc3Cl)nc(N)nc21 gave a GI50 of 13400 nM and a TGI of 48400 nM. In the case of N#Cc1ccc(O)c(C2=NCC(c3cccc(Oc4ccccc4)c3)O2)c1 (stereo not given), the GI50 is reported as 841 nM and the TGI is reported as 7070 nM. FC(F)(F)c1cccc(Nc2nccc(-c3cnn4nc(-c5ccccc5)ccc34)n2)c1 was tested, and the GI50 was 7420 nM and the TGI was > 23500 nM. For CC[C@]1(O)C[C@@H]2CN(CCc3c([nH]c4ccccc34)[C@@](C(=O)OC)(c3cc4c(cc3OC)N(C)[C@H]3[C@@](O)(C(=O)OC)[C@H](OC(C)=O)[C@]5(CC)C=CCN6CC[C@]43[C@@H]65)C2)C1, the GI50 was < 10 nM and the TGI was < 10 nM. Oc1ccc(CN2CCC(N3CCCCC3)CC2)c2cccnc12 gave a GI50 of 25200 nM and a TGI of 73900 nM. Work on CC1=CC(=Nc2ccc(N(CCCl)CCCl)cc2)C=C(C)C1=O yielded a GI50 of 191 nM and a TGI of 822 nM. For CCN(CC)c1ccc(/C=C/c2ccc3cc(C)ccc3[n+]2CC)cc1, the GI50 was 20.5 nM and the TGI was 464 nM. O=C(/C(Br)=C/c1ccccc1)c1ccccc1 showed a GI50 of 1120 nM and a TGI of 2560 nM. N#CSc1c[nH]c2cccc(/C=C/C(=O)/C=C(/C=C/c3cccc4[nH]cc(SC#N)c34)OB(F)F)c12 showed a GI50 of 300 nM and a TGI of 1190 nM. O=C1CCCCN1CCCCC#Cc1ccccc1C#Cc1ccc([N+](=O)[O-])cc1 was tested, and the GI50 was 4580 nM and the TGI was 26100 nM. CC/C(=C(/c1ccc(O)cc1)c1ccc(OCCNC)cc1)c1ccccc1 showed a GI50 of 1420 nM and a TGI of 2960 nM. Work on O=C(N/N=C/c1ccccc1O)c1ccccc1Nc1ccnc(C(F)(F)F)c1 yielded a GI50 of 272 nM and a TGI of 9140 nM. For CCOc1cc2c(Cl)ncnc2c(OCC)c1OCC, the GI50 was 781 nM and the TGI was 3560 nM. COc1cc(C2=NOC(c3cc(OC)c(OC)c(OC)c3)C2)ccc1OCCCCOc1cc2c(cc1OC)C(=O)N1CCC[C@H]1C=N2 (stereo not given in full) was tested, and the GI50 was 225 nM and the TGI was 593 nM. In the case of Oc1c(CN2CCC(N3CCCCC3)CC2)cc(Cc2cc(CN3CCC(N4CCCCC4)CC3)c(O)c3ncccc23)c2cccnc12, the GI50 is reported as 1150 nM and the TGI is reported as 2880 nM. With CCN(CC)CCOc1ccc(/C(=C(\Cl)c2ccccc2)c2ccccc2)cc1 the GI50 was 1360 nM and 1570 nM and the TGI was 5970 nM and 3050 nM. For O=C1Nc2c(C(F)(F)F)cccc2[C@]1(c1ccc(O)cc1)c1ccc(OC(F)(F)F)cc1, the GI50 was 6480 nM and the TGI was 21400 nM. C=C1C(=O)O[C@H]2[C@H]1CC/C(COC(=O)c1ccc3ccccc3c1)=C\CC[C@@]1(C)O[C@@H]21 showed a GI50 of 784 nM and a TGI of 2610 nM.
